Source: patent US10723741B1, “DNA polymerase IIIC inhibitors and use thereof” (Acurx Pharmaceuticals, LLC, priority 2018, dated 2020)
In brackets after ≈: the same amount, converted by molar mass. Read-outs that look alike come from different tables or passages of the source.

Legend:
Format in all cases: cell-based
[1] = test system: Staphylococcus aureus NRS384 (MRSA); assay: Broth microdilution MIC, S. aureus NRS384 (MRSA); parameters: MIC NRS 384 (MRSA): unit not given here; settings: for MIC: Staphylococcus aureus, read-out: MIC NRS 384 (MRSA)
How it was run: (§1)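 Two-fold dilutions from 64 to 0.0625 μg/ml final, 1% DMSO, were inoculated at ~5.0×10^5 cfu/ml in the strain's test medium and kept 20 h at 37 °C in ambient atmosphere. Colonies were grown on MHA, with S. pneumoniae on blood agar under 5% CO2.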

[2] = test system: Enterococcus faecalis ATCC 29212; assay: Broth microdilution MIC, E. faecalis ATCC 29212; settings: read-out: MIC E. faecalis ATCC 29212
How it was run: as §1

[3] = test system: Enterococcus faecium ATCC 700221 (VRE); assay: Broth microdilution MIC, E. faecium ATCC 700221 (VRE); settings: Enterococcus faecium, read-out: MIC E. faecium ATCC 700221 (VRE)
How it was run: as §1

[4] = test system: Bacillus subtilis ATCC 6633; assay: Broth microdilution MIC, B. subtilis ATCC 6633; settings: read-out: MIC B. subtilis ATCC 6633
How it was run: as §1

[5] = test system: Streptococcus pneumoniae ATCC 49619; assay: Broth microdilution MIC, S. pneumoniae ATCC 49619; settings: read-out: MIC S. pneumoniae ATCC 49619
How it was run: as §1

[6] = test system: Staphylococcus aureus ATCC 29213 (MSSA); assay: Broth microdilution MIC, S. aureus ATCC 29213 (MSSA); settings: read-out: MIC S. aureus ATCC 29213 (MSSA)
How it was run: as §1

[7] = test system: Escherichia coli ATCC 25922; assay: Broth microdilution MIC, E. coli ATCC 25922 (MHIIB w & w/o 4 mM EDTA); settings: for MIC: Escherichia coli, read-out: MIC E. coli ATCC 25922; for MIC E. coli ATCC 25922 + 4 mM EDTA: with 4 mM EDTA
How it was run: as §1

[8] = broth microdilution, 37° C., 20 hours
[9] = ATCC29212, broth microdilution, 37° C., 20 hours
[10] = ATCC6633, broth microdilution, 37° C., 20 hours
[11] = ATCC49619, broth microdilution, 37° C., 20 hours
[12] = ATCC25922, without EDTA, broth microdilution, 37° C., 20 hours

SMILES | MIC [1, 8] [µg/mL] | MIC [2, 9] [µg/mL] | MIC [3, 8] [µg/mL] | MIC [4, 10] [µg/mL] | MIC [5, 11] [µg/mL] | MIC [6, 8] [µg/mL] | MIC [7, 12] [µg/mL] | MIC E. coli ATCC 25922 + 4 mM EDTA [7, 8] [µg/mL] | MIC ([1]; 20 h) [µg/mL] | MIC ([2]; ATCC29212, 20 h) [µg/mL] | MIC ([3]; 20 h) [µg/mL] | MIC ([4]; ATCC6633, 20 h) [µg/mL] | MIC ([5]; ATCC49619, 20 h) [µg/mL] | MIC ([6]; 20 h) [µg/mL] | MIC ([7]; ATCC25922, 20 h) [µg/mL] | MIC NRS 384 (MRSA) [1, 8]
COc1cccnc1C(=O)N1CCC(n2ncc3nc(NCc4ccc(Cl)c(Cl)c4)[nH]c(=O)c32)CC1.Cl [Compound 268, 5-((3,4-Dichlorobenzyl)amino)-1-(1-(3-methoxypicolinoyl)piperidin-4-yl)-1H-pyrazolo[4,3-d]pyrimidin-7(6H)-one hydrochloride] | 8 | 8 | 4 | 2 | 4 | 8 | > 64 | >64 |  |  |  |  |  |  |  | 
Cl.O=C(c1ncc[nH]1)N1CCC(n2ncc3nc(NCc4ccc(Cl)c(Cl)c4)[nH]c(=O)c32)CC1 [Compound 269, 1-(1-(1H-imidazole-2-carbonyl)piperidin-4-yl)-5-((3,4-dichlorobenzyl)amino)-1H-pyrazolo[4,3-d]pyrimidin-7(6H)-one hydrochloride] | 4 | 4 | 2 | 1 | 4 | 4 | > 64 | >64 |  |  |  |  |  |  |  | 
Cl.O=C(c1cnc[nH]1)N1CCC(n2ncc3nc(NCc4ccc(Cl)c(Cl)c4)[nH]c(=O)c32)CC1 [Compound 270, 1-(1-(1H-imidazole-5-carbonyl)piperidin-4-yl)-5-((3,4-dichlorobenzyl)amino)-1H-pyrazolo[4,3-d]pyrimidin-7(6H)-one hydrochloride] | 16 | 8 | 4 | 4 | 8 | 16 | > 64 | >64 |  |  |  |  |  |  |  | 
Cl.O=C(c1cc[nH]n1)N1CCC(n2ncc3nc(NCc4ccc(Cl)c(Cl)c4)[nH]c(=O)c32)CC1 [Compound 271, 1-(1-(1H-pyrazole-3-carbonyl)piperidin-4-yl)-5-((3,4-dichlorobenzyl)amino)-1H-pyrazolo[4,3-d]pyrimidin-7(6H)-one hydrochloride] | 8 | 4 | 4 | 2 | 4 | 8 | > 64 | >64 |  |  |  |  |  |  |  | 
Cl.O=C(c1cn[nH]n1)N1CCC(n2ncc3nc(NCc4ccc(Cl)c(Cl)c4)[nH]c(=O)c32)CC1 [Compound 272, 1-(1-(2H-1,2,3-triazole-4-carbonyl)piperidin-4-yl)-5-((3,4-dichlorobenzyl)amino)-1H-pyrazolo[4,3-d]pyrimidin-7(6H)-one hydrochloride] | 8 | 4 | 2 | 4 | 8 | 16 | > 64 | >64 |  |  |  |  |  |  |  | 
Cl.O=C([C@@H]1C[C@@H](O)CN1)N1CCC(n2ncc3nc(NCc4ccc(Cl)c(Cl)c4)[nH]c(=O)c32)CC1 [Compound 274, 5-((3,4-dichlorobenzyl)amino)-1-(1-((2S,4R)-4-hydroxypyrrolidine-2-carbonyl)piperidin-4-yl)-1H-pyrazolo[4,3-d]pyrimidin-7(6H)-one hydrochloride] | 64 | 64 | 16 | 16 | 16 | 32 | > 64 | >64 |  |  |  |  |  |  |  | 
CC(C)(C)OC(=O)N1C[C@H](O)C[C@H]1C(=O)N1CCC(n2ncc3nc(NCc4ccc(Cl)c(Cl)c4)[nH]c(=O)c32)CC1 [Compound 275, (2S,4R)-tert-Butyl 2-(4-(5-((3,4-dichlorobenzyl)amino)-7-oxo-6,7-dihydro-1H-pyrazolo[4,3-d]pyrimidin-1-yl)piperidine-1-carbonyl)-4-hydroxypyrrolidine-1-carboxylate] |  |  |  |  |  |  |  | >64 | 32 (≈ 52.8 µM) | 16 (≈ 26.4 µM) | 8 (≈ 13.2 µM) | 8 (≈ 13.2 µM) | 8 (≈ 13.2 µM) | 32 (≈ 52.8 µM) | > 64 | 
CN(C)CC(O)C(O)C(=O)N1CCC(n2ncc3nc(NCc4ccc(Cl)c(Cl)c4)[nH]c(=O)c32)CC1.Cl (stereo not drawn) [Compound 277, 5-((3,4-dichlorobenzyl)amino)-1-(1-(4-(dimethylamino)-2,3-dihydroxybutanoyl)piperidin-4-yl)-1H-pyrazolo[4,3-d]pyrimidin-7(6H)-one hydrochloride] | 64 | 64 | 32 | 16 | 16 | > 64 | > 64 | >64 |  |  |  |  |  |  |  | 
Cl.O=C([C@@H]1C[C@H](O)CN1)N1CCC(n2ncc3nc(NCc4ccc(Cl)c(Cl)c4)[nH]c(=O)c32)CC1 [Compound 278, 5-((3,4-dichlorobenzyl)amino)-1-(1-((2S,4S)-4-hydroxypyrrolidine-2-carbonyl)piperidin-4-yl)-1H-pyrazolo[4,3-d]pyrimidin-7(6H)-one hydrochloride] | > 64 | > 64 | 64 | 32 | 32 | > 64 | > 64 | >64 |  |  |  |  |  |  |  | 
CN(C)C(CO)C(=O)N1CCC(n2ncc3nc(NCc4ccc(Cl)c(Cl)c4)[nH]c(=O)c32)CC1.Cl (stereo not drawn) [Compound 279, 5-((3,4-dichlorobenzyl)amino)-1-(1-(2-(dimethylamino)-3-hydroxypropanoyl)piperidin-4-yl)-1H-pyrazolo[4,3-d]pyrimidin-7(6H)-one hydrochloride] | 32 | 16 | 16 | 4 | 4 | 32 | > 64 | >64 |  |  |  |  |  |  |  | 
Cl.O=C(c1cccnc1)N1CCCC(Cn2ncc3nc(NCc4ccc(Cl)c(Cl)c4)[nH]c(=O)c32)C1 (stereo not drawn) [Compound 280, 5-((3,4-dichlorobenzyl)amino)-1-((1-nicotinoylpiperidin-3-yl)methyl)-1H-pyrazolo[4,3-d]pyrimidin-7(6H)-one hydrochloride] | 16 | 16 | 8 | 16 | 8 | 16 | > 64 | >64 |  |  |  |  |  |  |  | 
CC(=O)N1CCC(Cn2ncc3nc(NCc4ccc(Cl)c(Cl)c4)[nH]c(=O)c32)C1 (stereo not drawn) [Compound 281, 1-((1-Acetylpyrrolidin-3-yl)methyl)-5-((3,4-dichlorobenzyl)amino)-1H-pyrazolo[4,3-d]pyrimidin-7(6H)-one] |  | 4 (≈ 9.19 µM) | 2 (≈ 4.59 µM) | 2 (≈ 4.59 µM) | 2 (≈ 4.59 µM) | 8 (≈ 18.4 µM) | > 64 | >64 |  |  |  |  |  |  |  | 4/8
Cl.O=c1[nH]c(NCc2ccc(Cl)c(Cl)c2)nc2cnn(CCOCc3nn[nH]n3)c12 [Compound 282, 1-(2-((2H-tetrazol-5-yl)methoxy)ethyl)-5-((3,4-dichlorobenzyl)amino)-1H-pyrazolo[4,3-d]pyrimidin-7(6H)-one hydrochloride] | > 64 | > 64 | > 64 | > 64 | > 64 | > 64 | > 64 | >64 |  |  |  |  |  |  |  | 
O=C(O)COCCn1ncc2nc(NCc3ccc(Cl)c(Cl)c3)[nH]c(=O)c21 [Compound 283, 2-[2-[5-[(3,4-dichlorophenyl)methylamino]-7-oxo-6H-pyrazolo[4,3-d]pyrimidin-1-yl]ethoxy]acetic acid] | > 64 | > 64 | > 64 | > 64 | > 64 | > 64 | > 64 | >64 |  |  |  |  |  |  |  | 
NC(=O)COCCn1ncc2nc(NCc3ccc(Cl)c(Cl)c3)[nH]c(=O)c21 [Compound 284, 2-[2-[5-[(3,4-dichlorophenyl)methylamino]-7-oxo-6H-pyrazolo[4,3-d]pyrimidin-1-yl]ethoxy]acetamide] | 64 (≈ 156 µM) | 16 (≈ 38.9 µM) | 8 (≈ 19.5 µM) | 8 (≈ 19.5 µM) | 8 (≈ 19.5 µM) | 16 (≈ 38.9 µM) | > 64 | >64 |  |  |  |  |  |  |  | 
